Source: patent publication US20060199240A1, “Biosensor and method comprising enzymes immobilized on semiconductors” (Yissum Research Development Company of the Hebrew …, priority 2002, published 2006)

B1: AChE (Homo sapiens) (protein)
chain: EGREDAELLVTVRGGRLRGIRLKTPGGPVSAFLGIPFAEPPMGPRRFLPPEPKQPWSGVVDATTFQSVCYQYVDTLYPGFEGTEMWNPNRELSEDCLYLNVWTPYPRPTSPTPVLVWIYGGGFYSGASSLDVYDGRFLVQAERTVLVSMNYRVGAFGFLALPGSREAPGNVGLLDQRLALQWVQENVAAFGGDPTSVTLFGESAGAASVGMHLLSPPSRGLFHRAVLQSGAPNGPWATVGMGEARRRATQLAHLVGCPPGGTGGNDTELVACLRTRPAQVLVNHEWHVLPQESVFRFSFVPVVDGDFLSDTPEALINAGDFHGLQVLVGVVKDEGSYFLVYGAPGFSKDNESLISRAEFLAGVRVGVPQVSDLAAEAVVLHYTDWLHPEDPARLREALSDVVGDHNVVCPVAQLAGRLAAQGARVYAYVFEHRASTLSWPLWMGVPHGYEIEFIFGIPLDPSRNYTAEEKIFAQRLMRYWANFARTGDPNEPRDPKAPQWPPYTAGAQQYVSLDLRPLEVRRGLRAQACAFWNRFLPKLLSATDTLDEAERQWKAEFHRWSSYMVHWKNQFDHYSKQDRCSDL

What was measured:
[1] = target: acetylcholine esterase (AChE) (Electrophorus electricus, UniProt O42275); assay type: biochemical
Chain of acetylcholine esterase (AChE) (O42275 24-633): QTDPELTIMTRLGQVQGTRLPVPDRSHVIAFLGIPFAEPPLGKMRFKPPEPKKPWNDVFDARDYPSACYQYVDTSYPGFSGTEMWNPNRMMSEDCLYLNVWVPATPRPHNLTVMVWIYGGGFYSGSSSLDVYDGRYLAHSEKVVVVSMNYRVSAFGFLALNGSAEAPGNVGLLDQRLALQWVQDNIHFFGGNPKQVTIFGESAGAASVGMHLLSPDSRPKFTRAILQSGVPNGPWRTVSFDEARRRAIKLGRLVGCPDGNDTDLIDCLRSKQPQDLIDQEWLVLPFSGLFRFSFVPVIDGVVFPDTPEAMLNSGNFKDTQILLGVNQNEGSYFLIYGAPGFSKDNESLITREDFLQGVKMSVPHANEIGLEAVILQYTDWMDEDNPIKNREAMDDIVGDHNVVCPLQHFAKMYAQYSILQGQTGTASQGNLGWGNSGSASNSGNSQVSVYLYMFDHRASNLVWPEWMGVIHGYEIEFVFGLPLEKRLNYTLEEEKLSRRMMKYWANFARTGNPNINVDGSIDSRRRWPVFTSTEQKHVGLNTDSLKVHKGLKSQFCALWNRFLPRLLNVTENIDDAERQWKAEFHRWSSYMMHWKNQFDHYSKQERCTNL
Procedure: Data were recorded in 0.1 M phosphate buffer, pH=8.1, under argon.
One of the products of the hydrolysis of acetylthiocholine is thiocholine (2), which is an electron donor.
FIG. 2A depicts the photocurrent action spectra resulting in the photoirradiation of the system in the presence of different concentrations of acetylthiocholine. […] Thus, the photocurrent generation in the system is attributed to the AChE catalyzed hydrolysis of acetylthiocholine, (1), to acetate and thiocholine, (2). The latter product acts as donor for the holes generated in the valence band upon excitation of the CdS nanoparticles. Thus, oxidation of thiocholine by the holes eliminates the electron-hole recombination, and thus a steady-state photocurrent is generated.

[2] = substrate: CC(=O)SCC[N+](C)(C)C; assay: KM of AChE towards acetylthiocholine in solution; assay type: biochemical; details: other: AChE in solution
Procedure: The KM value of the AChE linked to the CdS nanoparticles towards acetylthiocholine, (1), is KM=5 mM. This value is higher than the KM=0.13 mM of ACHE and (1) in solution. The higher KM value for the nanoparticle-immobilized ACHE may be attributed to slight deactivation and structural perturbation of the biocatalyst as a result of surface linkage.

Molecule | effect on photocurrent with increasing concentration [1] | mode of inhibition [1] | reversibility: photocurrent after washing off the inhibitor [1] | Km [2]
C=CC[N+](C)(C)c1ccc(CCC(=O)CCc2ccc([N+](C)(C)CC=C)cc2)cc1 [(3), 1,5-bis(4-allyldimethylammoniumphenyl)pentane-3-one dibromide] | decreases the photocurrent | competitive inhibitor | almost restores the initial photocurrent | 
B1 |  |  |  | 130 µM
